Measurements reported in patent US20150141414A1, “Formulation of Stable Recombinant Alpha-Fetoprotein Conjugated with Anti-Tumor Substance in Target-Delivery System for Treatment of Cancer and Autoimmune Disease” (priority 2013, published 2015).
Read-outs that look alike come from different tables or passages of the source. Starred links: 1 amine or outer side, 2 acyl side, 3 side chain; linkers in the order of their positions; H or OH if unused. Positions of bridges follow the written chain, without caps; N, C: chain ends. Non-standard residues stand in square brackets, D forms with d. Residues, ends and D or L forms follow the SMILES beside them. Chains are numbered I, II in the order given. Actinocin(9to1) = Cc1c2oc3c(C)ccc(C(=O)[*:1])c3nc-2c(C(=O)[*:2])c(N)c1=O; NMeV = CN[C@H](C(=O)O)C(C)C; Sar = CNCC(=O)O

Columns and labels:
[1] = tested on: Hela cervical cancer cells; test: MTT cytotoxicity assay, Hela cervical cancer cells; format: cell-based; conditions: Homo sapiens, mean of three determinations, read-out: 50% growth inhibition concentration (1050)
Method: The cytotoxicity of dactinomycin incorporated in PLGA conjugated with rAFP was tested with Hela cervical cancer cells. It is recognized that the use of PLGA as the controlled release polymer system is particularly suitable for the intent of the present invention because PLGA is well known for its safety in clinic. The Hela cells were doused with both dactinomycin in bulk. MTT assay was then performed to quantify the inhibitory concentration. […] 1050 was calculated from the cell viability data as the drug concentration in which cell growth was inhibited by 50%.

[2] = tested on: lymphocyte of an average healthy person; test: Dose-dependent survival of lymphocytes of a healthy person; format: cell-based; conditions: Homo sapiens, read-out: 50% growth inhibition concentration
Description: Each value depicted in FIGS. 1A and 1B is the mean of three determinations with coefficient of variation less than 20%.

rat = conditions: cited from earlier work
mouse = conditions: cited from earlier work
cat = conditions: cited from earlier work
frog = conditions: intravenous injection; cited from earlier work
pigeon = conditions: intravenous injection; cited from earlier work

For `Cc1c2oc3c(C)ccc(C(=O)N[C@@H]4C(=O)N[C@H](C(C)C)C(=O)N5CCC[C@H]5C(=O)N(C)CC(=O)N(C)[C@@H](C(C)C)C(=O)O[C@@H]4C)c3nc-2c(C(=O)N[C@@H]2C(=O)N[C@H](C(C)C)C(=O)N3CCC[C@H]3C(=O)N(C)CC(=O)N(C)[C@@H](C(C)C)C(=O)O[C@@H]2C)c(N)c1=O` [dactinomycin in bulk, Dactinomycin] (I: T[dV]P[Sar][NMeV] / II: T[dV]P[Sar][NMeV]; ester I:1-I:C, II:1-II:C; linker I:N-II:N via Actinocin(9to1)), the IC50 [1] is given as 1.7 nM, the IC50 [2] is given as 23.8 nM and the “oral LD50” value (rat; rat, oral) is given as 7.2 mg/kg. The “lethal dose as multiple of maximum recommended daily human dose (body surface area basis)” value (rat; rats, intravenous 500 mcg/kg) was 5.4 times, the lethal intravenous dose (rat; rats, intravenous) was 0.5 mg/kg and the “lethal dose as multiple of maximum recommended daily human dose (body surface area basis)” value (mouse; mice, intravenous 700 mcg/kg) was 3.8 times. For the same molecule, the lethal intravenous dose (mouse; mice, intravenous) was 0.7 mg/kg and the “oral LD50” value (mouse; mouse, oral) was 7.8 mg/kg.

For `COc1cc2c(Nc3ccc(Br)cc3F)ncnc2cc1OCC1CCN(C)CC1` [vandetanib], the LD50 intravenous (rat; rats, intravenous) is listed as 17-41 mg/kg body weight.

For `C[C@]12CC[C@H](O)C[C@H]1CC[C@@H]1[C@@H]2CC[C@]2(C)[C@@H](c3ccc(=O)oc3)CC[C@]12O` [bufalin], the LD50 intravenous (cat) is listed as 0.14 mg/kg and the LD50 intravenous (mouse; mouse, intravenous) is listed as 0.74 mg/kg.

In the case of `C[C@H]1O[C@@H](O[C@H]2[C@@H](O)C[C@H](O[C@H]3[C@@H](O)C[C@H](O[C@H]4CC[C@@]5(C)[C@H](CC[C@@H]6[C@@H]5CC[C@]5(C)[C@@H](C7=CC(=O)OC7)CC[C@]65O)C4)O[C@@H]3C)O[C@@H]2C)C[C@H](O)[C@@H]1O` [digitoxin], the LD50 intravenous (frog) is given as 0.73 mg/kg, the LD50 intravenous (pigeon) is given as 0.32 mg/kg and the LD50 intravenous (mouse; mouse, intravenous injection) is given as 4.1 mg/kg.

For `CN(Cc1cnc2nc(N)nc(N)c2n1)c1ccc(C(=O)N[C@@H](CCC(=O)O)C(=O)O)cc1` [methotrexate], the LD50 intravenous (rat; rats, intravenous) is given as 14 mg/kg body weight.
